Assay results published in patent US4690935A, “Inhibition of tumor growth and metastasis with calcium channel blocker compounds” (Wayne State University, priority 1983, dated 1987).

Key:
B16a Tumor Cells [1] = experiment: "Spontaneous" lung metastasis from an in vivo subcutaneous implant of B16a tumor cells; design: species or system mouse; details: mice; for % of Control (mean number of pulmonary metastases): oral once daily, 27 days, x ± SEM, N = 10, control = 100%; for reduction of spontaneous metastasis (in words): chronic oral administration
Text: B16 amelanotic melanoma (B16a) and Walker 256 L-Pam carcinosarcoma were obtained from the Division of Cancer Treatment, Animal and Human Tumor Bank, Mason Research Institute, Worcester, Mass. Tumors were passaged four times after receipt in syngeneic C57BL/6J male mice (B16a) or allogenic Sprague Dawley rats (Walker 256 L-Pam). Passaging involved subcutaneous implantations of tumor pices (diced to approximately 2×2 MM) into the right auxiliary region using a 18 gauge needle. Mice weighing approximately 20 grams (4 to 5 weeks old) were used to passage the B16a cell line and female rats were used to passage the Walker 256 L-Pam cell line. Animals were housed under identical conditions of temperature, feeding, photoperiod, etc. The transplanted tumors were allowed to grow for approximately 14 days following implantation.
The B16a tumor cells, obtained by the previously described procedure of tumor dispersion and tumor cell elutriation were used to test the antimetastatic effect of BAY e 9736.
The effect of chronic oral administration of BAY e 9736 on spontaneous lung metastasis from a primary subcutaneous B16a tumor was also determined. A 16 mg portion of BAY e 9736 was dissolved in 1 ml of PEG-400 and diluted 1:8, 1:32, 1:80, and 1:800. Syngeneic C56BL/6J mice were injected subcutaneously with 1×10^5 B16a tumor cells in 0.1 ml prepared as previously described. Starting one day post tumor injection, the mice were administered BAY e 9736 orally once a day for 27 days with 0.1 ml of the diluted BAY e 9736. The control and treated mice were housed under identical conditions of temperature, feeding and photoperiod, etc. The mice were sacrificed 28 days after the injection of tumor cells and the lungs were removed in Bouin's solution and visible bilateral metastasis counted.

Platelet = experiment: Tumor cell (B16a) induced platelet aggregation (TCIPA); format: cell-based, human; details: for effect on tumor cell induced platelet aggregation (in words): 400 micrograms/ml to 0.4 micrograms/ml
Experimental: Blood (45 ml) was drawn from the […] vein of healthy, fasted, aspirin free (at least two weeks) human volunteers into a plastic syringe containing 5 ml of 4.8% dextrose with 50 U/ml heparin buffered by 25 mM HEPES, pH 7.5. An 18 gauge needle was used to prevent hemolysis. The heparinized blood was gently mixed by inverting the syringe five times and then the blood was transfused into two 40 ml plastic centrifuge tubes and centrifuged for 10 min at 163×g. The resulting platelet rich plasma (PRP; the supernatant fraction) was decanted using an adjustable SMI pipette set at 6 ml. Platelet poor plasma (PPP) was prepared by centrifugation of PRP for 10 min at 1086×g. Platelet poor plasma was used to standardize the platelet concentration in PRP to 3×10^8 /ml. Platelet concentrations were determined using a Coulter Model ZBI cell counter.
Platelet aggregation was measured photometrically using a Sienco Model DP-247E dual channel aggregometer and recorded on a Sienco Model B-5000 dual channel recorder. Aliquots of PRP (250 microliters at 3×10^8 platelets/ml) were transferred into aggregometry cuvettes and stirred at a constant speed of 800 RPM at 37° C. Platelet aggregation studies were designed and run as individually controlled samples. BAY e 9736 was dissolved in either PEG-400 or […] (DMSO).
BAY e 9736 in PEG-400 alone was aliquoted into the cuvettes prior to the addition of the PRP. Immediately after the addition of the PRP, the cuvettes were placed into the aggregometer. After two minutes (to allow for the stabilization of the platelet preparation and mixing of the BAY e 9736), ADP or tumor cells were added in 20 microliter aliquots to induce platelet aggregation.
A 20 milligram sample of BAY e 9736 was dissolved in 1 ml of polyethylene glycol (PEG-400) and serially diluted with PEG-400 to 2, 0.2 and 0.02 mg/ml concentrations using PEG-400. Tumor cell induced platelet aggregation (TCIPA) studies were performed as described previously. The effect of BAY e 9736 on TCIPA was determined by the mixing of 2 or 5 microliter aliquots of 20, 2, 0.2 or 0.02 mg/ml BAY e 9736 and the platelet rich plasma (PRP) for approximately 3 minutes prior to the addition of tumor cells.

B16a Tumor Cells [2] = experiment: In vitro proliferation of B16a tumor cells; format: cell-based, mouse; details: for effect on tumor cell proliferation (in words): B16a cells, 10-40 micrograms/ml, five day assay
Experimental: Proliferation studies were designed to measure the effects of BAY e 9736 on the proliferation of B16 a tumor cells. B16a tumor cells were plated into T-25 flasks (4×10^4 cells/flask) and allowed to grow at 37° C. for 16 hours. The media was removed from the flasks and plating efficiency was determined using a Coulter counter. Replacement media was added to the flasks, which were allowed to incubate for 24 hours. After the 24 hour incubation, 10 microliters of control (media), DMSO, or BAY e 9736 in DMSO (40 mg/ml stock) was added to the flasks. Media replacement with and without BAY e 9736 were performed every 24 hours for 4 consecutive days. Control flasks (3) were terminated every day of the proliferation study with 4 terminated on the final day.
A 40 mg aliquot of BAY e 9736 was dissolved in 1 milliliter dimethyl sulfoxide (DMSO). Aliquots of this 40 mg/ml stock were diluted with DMSO to final concentrations of 20 and 10 mg/ml. At day two and each successive day, 10 microliter aliquots of 40, 20, and 10 mg/ml BAY e 9736 were added once a day to the new media of flasks containing proliferating B16a tumor cells as previously described.

COCCOC(=O)C1=C(C)NC(C)=C(C(=O)OC(C)C)C1c1cccc([N+](=O)[O-])c1 (stereo not drawn) [BAY e 9736, 1,4-dihydro-2,6-dimethyl-4-(3' nitrophenyl)-pyridine-3-(beta-methyoxyethylester)-5-(isopropyl ester)]
% of Control (mean number of pulmonary metastases) (B16a Tumor Cells [1]; 0.1 mg/kg): 68 ± 14% | % of Control (mean number of pulmonary metastases) (B16a Tumor Cells [1]; 1.0 mg/kg): 45 ± 9% | % of Control (mean number of pulmonary metastases) (B16a Tumor Cells [1]; 2.5 mg/kg): 33 ± 22% | % of Control (mean number of pulmonary metastases) (B16a Tumor Cells [1]; 10.0 mg/kg): 28 ± 7% | % of Control (mean number of pulmonary metastases) (B16a Tumor Cells [1]; 80.0 mg/kg): 19 ± 6% | reduction of spontaneous metastasis (in words) (B16a Tumor Cells [1]): effective in decreasing the number of spontaneous metastasis as compared to the control mice | reduction of spontaneous metastasis (in words) (B16a Tumor Cells [1]; listed as nimodipine): significantly reduce spontaneous metastasis | % Inhibition of Tumor Cell Induced Platelet Aggregation (Platelet; 0.00015 mg/ml final): No effect | % Inhibition of Tumor Cell Induced Platelet Aggregation (Platelet; 0.004 mg/ml final (second line so printed, below 0.0015)): No effect | effect on tumor cell induced platelet aggregation (in words) (Platelet): does inhibit TCIPA | effect on tumor cell induced platelet aggregation (in words) (Platelet; listed as nimodipine): greatly inhibit platelet aggregation induced by tumor cells | inhibition at 1.5 µg/mL (Platelet; Homo sapiens, Platelet, 0.0015 mg/ml final, x ± SEM, n = 3): 12 ± 4.1% | inhibition at 4 µg/mL (Platelet; Homo sapiens, Platelet, 0.004 mg/ml final, x ± SEM, n = 3): 19 ± 5.9% | inhibition at 15 µg/mL (Platelet; Homo sapiens, Platelet, 0.015 mg/ml final, x ± SEM, n = 3): 32 ± 3.5% | inhibition at 40 µg/mL (Platelet; Homo sapiens, Platelet, 0.04 mg/ml final, x ± SEM, n = 3): 55 ± 7.7% | inhibition at 150 µg/mL (Platelet; Homo sapiens, Platelet, 0.15 mg/ml final, x ± SEM, n = 3): 67 ± 8.5% | inhibition at 400 µg/mL (Platelet; Homo sapiens, Platelet, 0.4 mg/ml final, x ± SEM, n = 3): 85 ± 9.6% | effect on platelet aggregation, dissolved in PEG-400 vs DMSO (Platelet; preliminary aggregometry studies): no statistically significant differences | effect on tumor cell proliferation (in words) (B16a Tumor Cells [2]): inhibits tumor cell proliferation | effect on tumor cell proliferation (in words) (B16a Tumor Cells [2]; listed as nimodipine): decreases the rate of tumor cell growth over a five day assay period | activity at 10 µg/mL (B16a Tumor Cells [2]; Mus musculus, .01 mg/ml, drug readded once daily, x ± SEM, n = 4, read-out: % of Control Tumor Cell Number): 50 ± 5% | activity at 20 µg/mL (B16a Tumor Cells [2]; Mus musculus, .02 mg/ml, drug readded once daily, x ± SEM, n = 4, read-out: % of Control Tumor Cell Number): 25 ± 5% | activity at 40 µg/mL (B16a Tumor Cells [2]; Mus musculus, .04 mg/ml, drug readded once daily, x ± SEM, n = 4, read-out: % of Control Tumor Cell Number): 14 ± 3%
